Patent US20250367209A1 (SOUTHERN RESEARCH INSTITUTE, priority 2022, published 2025)
Entries after “also recorded” stand apart in the source; their conditions may differ.

How the values were obtained:
[1] = molecular target: Tau-FynSH3 interaction (Homo sapiens (Human), UniProt P10636); assay: Tau-Flag PLA, Tau-FynSH3; format: cell-based
Method: (§1) Tau-Flag PLA for Tau-SH3 interactions: To clone the SH3 constructs, a C-terminal Flag tag was added to the Tau construct using PCR, then the Tau sequence was replaced with the desired SH3 domain using In-Fusion HD cloning kit (Takara Bio). Next, an N-terminal GST tag was added to help expression using In-Fusion, resulting in GST-SH3-Flag plasmids. As a negative control, restriction enzymes were used to remove the FynSH3 from the FynSH3 construct, resulting in GST-Flag. All sequences were confirmed with Sanger sequencing, and expression in HEK-293 cells was verified by western blot and immunocytochemistry. Plating and experimental timeline was the same as above. Cells were transfected with 125 ng of Tau-mKate2 and 500 ng SH3 plasmid with 1.5 μL Fugene. compound no. 69 was applied to final concentration 15 μM. For Tau-SH3 PLA, we used Dako Tau (1:1000) and Flag (1:1000) primary antibodies.

[2] = molecular target: FynSH3 (Homo sapiens (Human), UniProt P06241); assay: Isothermal titration calorimetry, FynSH3; format: binding
Text: Human Fyn-SH3 domain with GST-tag at the N-terminus and a Strep-tag II ([…]) at the C-terminus (GST-Fyn-SH3-Strep) was cloned into pPR-IBA1 vector (IBA Lifesciences) (Cochran, et al. (2014) J. Biomol. Screen. 19, 1338-1349). Codon-optimized human 4R2N Tau for E. coli expression with a Strep-tag II at the C-terminus (His-Tau-Strep) was cloned into pET-28a(+) vector (Novagen). The constructs were transformed into E. coli BL-21(DE3) competent cells (Novagen). For GST-Fyn-SH3-Strep purification, a single colony was inoculated in Luria-Bertani (LB) broth at 37° C. overnight. 10 mL cell culture was added into 500 mL LB medium and cultured at 37° C. 0.5 mM Isopropyl β-D-1-thiogalactopyranoside (IPTG) was added into the culture when OD600 reached 0.7. Cells were further cultured at 25° C. for 4 hours and harvested. Cell pellet was resuspended in lysis buffer (20 mM Tris pH 7.9, 300 mM NaCl, 1 mM TCEP) with 1 tablet of EDTA-free protease inhibitors (ThermoFisher) and 1 mg/ml lysozyme. Cells were disrupted by sonication and debris was removed by centrifugation at 9500 rpm for 1 hour. […]
Purified full-length Tau and FynSH3 were dialyzed into 20 mM Tris and 150 mM NaCl, pH 8.0 with Slide-A-Lyzer G2 Dialysis Cassettes with 10K MWCO (ThermoFisher #87729). […] Protein concentrations were measured on a Nanodrop2000 (ThermoFisher) based on absorbance at 280 nm. […]

[3] = molecular target: Tau-BIN1SH3 interaction (Homo sapiens (Human), UniProt P10636); assay: Tau-Flag PLA, Tau-BIN1SH3; format: cell-based; settings: 15 μM, HEK-293 cells
Method: as §1

[4] = molecular target: Tau-LckSH3 interaction (Homo sapiens (Human), UniProt P10636); assay: Tau-Flag PLA, Tau-LckSH3; format: cell-based; settings: 15 μM, HEK-293 cells
Method: as §1

[5] = molecular target: 97 kinases; assay: Eurofins DiscoverX ScanEDGE kinase panel; format: biochemical; settings: compound no. 69 at 3 μM; saracatinib stock 30 μM = 1000× testing concentration; activity = <35% of control
Text: 69 and compound no. […] Since Fyn was not included in that panel, a custom panel was completed for Fyn kinase activity.

Sequence of Tau-FynSH3 interaction (P10636 other isoform, or with tags, fused parts or gaps): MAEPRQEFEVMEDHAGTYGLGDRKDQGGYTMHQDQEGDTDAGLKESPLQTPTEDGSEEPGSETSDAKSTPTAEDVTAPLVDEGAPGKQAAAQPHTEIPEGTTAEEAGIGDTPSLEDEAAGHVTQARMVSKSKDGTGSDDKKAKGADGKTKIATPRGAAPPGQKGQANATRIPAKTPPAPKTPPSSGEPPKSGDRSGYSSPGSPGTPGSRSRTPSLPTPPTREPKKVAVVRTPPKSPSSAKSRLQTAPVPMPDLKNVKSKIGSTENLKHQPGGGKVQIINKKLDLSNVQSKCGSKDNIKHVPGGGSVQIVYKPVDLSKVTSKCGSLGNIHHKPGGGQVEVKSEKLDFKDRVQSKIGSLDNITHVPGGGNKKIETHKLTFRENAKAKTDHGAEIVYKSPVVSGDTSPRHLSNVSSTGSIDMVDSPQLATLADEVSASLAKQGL
Sequence of Tau-LckSH3 interaction (P10636 other isoform, or with tags, fused parts or gaps): as above
Sequence of Tau-BIN1SH3 interaction (P10636 other isoform, or with tags, fused parts or gaps): as above
Sequence of FynSH3 (P06241 82-143): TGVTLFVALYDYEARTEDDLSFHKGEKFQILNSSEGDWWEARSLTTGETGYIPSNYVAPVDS

## O=C(CN1CCOc2ccccc21)Nc1nnc(-c2ccccn2)[nH]1 [compound no. 69]
[1]; 15 μM, HEK-293 cells
  Tau-FynSH3 interaction, Tau-Flag PLA (in words): inhibited
[1]; HEK293, HEK-293 cells
  inhibition at 15 µM: 37%
[2]
  binding to FynSH3, ITC: did not bind FynSH3
[3]
  Tau-BIN1SH3 interaction, Tau-Flag PLA: moderately inhibited; also recorded: inhibits Tau-BIN1SH3 interaction
[4]
  Tau-LckSH3 interaction, Tau-Flag PLA: strongly inhibited; also recorded: inhibits Tau-LckSH3 interaction
[5]
  kinase inhibition, panel of 97 kinases: did not inhibit Fyn or any of the 97 kinases; also recorded: is not a kinase inhibitor
